Assay results: PMC5650142, “GPR40 partial agonists and AgoPAMs: Differentiating effects on glucose and hormonal secretions in the rodent” (PLoS ONE, 2017)
Several values for one entry are separate records, joined by “and”; a condition that tells them apart may be missing. Equal entries are not always repeated.

System: GK rats
Assay: GK rat chronic efficacy (28 days: glucose, food intake, body weight, GLP-1, GIP, PYY, insulin, glucagon)
Format: in vivo
Parameters: Food Intake Over Time (Fig 3C) / Total Body Weight Change Over Time / Active GLP-1 Levels Over Time: unit not given here
Conditions: for Total Body Weight Change Over Time / Active GLP-1 Levels Over Time / GIP Levels Over Time / PYY Levels Over Time / Plasma Insulin Over Time: GK rats
Procedure, shortened: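 Daily oral gavage for 28 days, AP1 or AP3 at 30 mg/kg in 0.5% methylcellulose; MK-8666 at 30 mg/kg in feed. Fed glucose, food intake and weight on days 10, 17, 23, 28; glucose, GLP-1, GIP, PYY after 6 h fast, 1 h post dose. Hormones by MSD immunoassay or bead panel.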

[1] = 30 mpk, Day 0, individual animals (Fig 3D)
[2] = 30 mpk, Day 0, individual animals (Fig 4B), 30 mg/kg
[3] = 30 mpk, Day 0, individual animals (Fig 4D), 30 mg/kg, in pg/mL (unit assumed)
[4] = 30 mpk, Day 0, individual animals (Fig 5A), 30 mg/kg
[5] = 30 mpk, Day 10, individual animals (Fig 3D), 30 mg/kg
[6] = 30 mpk, Day 10, individual animals (Fig 4B), 30 mg/kg
[7] = 30 mpk, Day 10, individual animals (Fig 4C), 30 mg/kg, in pg/mL (unit assumed)
[8] = 30 mpk, Day 10, individual animals (Fig 4D), 30 mg/kg, in pg/mL (unit assumed)
[9] = 30 mpk, Day 10, individual animals (Fig 5A), 30 mg/kg
[10] = 30 mpk, Day 17, individual animals (Fig 3D), 30 mg/kg
[11] = 30 mpk, Day 17, individual animals (Fig 4B), 30 mg/kg
[12] = 30 mpk, Day 17, individual animals (Fig 4C), 30 mg/kg, in pg/mL (unit assumed)
[13] = 30 mpk, Day 17, individual animals (Fig 4D), 30 mg/kg, in pg/mL (unit assumed)
[14] = 30 mpk, Day 17, individual animals (Fig 5A), 30 mg/kg
[15] = 30 mpk, Day 23, individual animals (Fig 3D), 30 mg/kg
[16] = 30 mpk, Day 28, individual animals (Fig 3D), 30 mg/kg
[17] = 30 mpk, Day 28, individual animals (Fig 4B), 30 mg/kg
[18] = 30 mpk, Day 28, individual animals (Fig 4C), 30 mg/kg, in pg/mL (unit assumed)
[19] = 30 mpk, Day 28, individual animals (Fig 4D), 30 mg/kg, in pg/mL (unit assumed)
[20] = 30 mpk, Day 28, individual animals (Fig 5A), 30 mg/kg

SMILES | Food Intake Over Time (Fig 3C) (30 mpk, Day 10) | Food Intake Over Time (Fig 3C) (30 mpk, Day 17) | Food Intake Over Time (Fig 3C) (30 mpk, Day 23) | Food Intake Over Time (Fig 3C) (30 mpk, Day 28) | Total Body Weight Change Over Time [1] | Active GLP-1 Levels Over Time [2] | PYY Levels Over Time [3] | Plasma Insulin Over Time [4] | Total Body Weight Change Over Time [5] | Active GLP-1 Levels Over Time [6] | GIP Levels Over Time [7] | PYY Levels Over Time [8] | Plasma Insulin Over Time [9] | Total Body Weight Change Over Time [10] | Active GLP-1 Levels Over Time [11] | GIP Levels Over Time [12] | PYY Levels Over Time [13] | Plasma Insulin Over Time [14] | Total Body Weight Change Over Time [15] | Total Body Weight Change Over Time [16] | also measured
C[C@H](C(=O)O)[C@H](c1ccc2c(c1)O[C@H](C1CN(Cc3cc(C(F)(F)F)ccc3C(F)(F)F)C1)CC2)C1CC1 [AP3] | 15.815 and 14.78 and 14.855 and 15.07 and 14.37 | 16.6286 and 16.6643 and 16.8143 and 16.8286 and 16.8071 | 18.5083 and 18.3917 and 17.85 and 19.125 and 17.525 | 17.91 and 18.83 and 18.78 and 18.96 and 19.28 | 0 | 1.077 and 2.563 and 1.567 and 0.8713 and 1.148 and 1.431 and 1.186 and 1.3237 and 1.438 and 1.6108 | 45.68 and 75.54 and 74.62 and 61.64 and 36.39 and 74.15 and 136.82 and 43.52 and 46.38 and 67.65 | 1.29 ng/mL and 1.017 ng/mL and 1.844 ng/mL and 1.516 ng/mL and 2.832 ng/mL and 2.437 ng/mL and 2.602 ng/mL and 2.286 ng/mL and 2.384 ng/mL and 3.155 ng/mL | 11 and 17 and 1 (4×) and 8 and 2 and -5 and -10 | 10.2264 and 10.1136 and 9.093 and 7.341 and 9.911 and 6.136 and 9.947 and 8.858 and 9.564 and 4.836 | 131.59 and 538.63 and 268.56 and 356.56 and 280.21 and 297.28 and 251.81 and 343.6 and 366.22 and 226.85 | 327.63 and 434.04 and 220.17 and 263.06 and 264.64 and 198.53 and 67.33 and 282.5 and 263.78 and 239.29 | 0.805 ng/mL and 1.032 ng/mL and 1.336 ng/mL and 1.205 ng/mL and 1.609 ng/mL and 1.271 ng/mL and 0.3056 ng/mL and 1.028 ng/mL and 1.285 ng/mL and 1.24 ng/mL | 17 and 22 and 6 (2×) and 19 and 5 and 10 and 7 and 3 and 4 | 8.7 and 6.18 and 9.28 and 4.41 and 6.22 and 9.2 and 7.03 and 4.78 and 4.82 and 5.22 | 453.42 and 366.18 and 475.48 and 267.46 and 451.8 and 353.69 and 400.36 and 407.49 and 350.93 | 179 and 263.66 and 236.63 and 203.98 and 272.19 and 278.33 and 130.51 and 189.28 and 188.49 | 0.5609 ng/mL and 0.9183 ng/mL and 0.2807 ng/mL and 1.641 ng/mL and 1.961 ng/mL and 1.708 ng/mL and 1.453 ng/mL and 0.6985 ng/mL and 1.1926 ng/mL and 1.855 ng/mL | 28 and 34 and 22 and 15 and 18 and 7 and 14 and 17 and 6 and 4 | 30 and 36 and 25 and 20 and 21 and 10 and 19 and 22 and 14 (2×) | GIP Levels Over Time (30 mpk, Day 0, individual animals (Fig 4C), 30 mg/kg): 64.6 and 61.42 and 49.69 and 65.31 and 46.23 (2×) and 37.69 and 48.72 and 40.59 and 29.52; Active GLP-1 Levels Over Time [17]: 7.945 and 6.4879 and 5.324 and 10.6145 and 8.6355 and 6.965 and 4.915 and 7.012 and 6.997 and 8.043; GIP Levels Over Time [18]: 257.43 and 223.283 and 216.92 and 196.33 and 188.58 and 171.99 and 248.64 and 189.72 and 162.6 and 177.95; PYY Levels Over Time [19]: 237.97 and 76.0833 and 195.93 and 219.09 and 189.97 and 176.63 and 223.29 and 158.15 and 160.92 and 153.75; Plasma Insulin Over Time [20]: 0.8153 ng/mL and 0.3115 ng/mL and 0.9427 ng/mL and 0.8881 ng/mL and 1.431 ng/mL and 0.8809 ng/mL and 1.428 ng/mL and 1.376 ng/mL and 1.352 ng/mL and 1.27 ng/mL
Cc1cc(OCCCS(C)(=O)=O)cc(C)c1-c1cccc(COc2cc3c(cn2)[C@H]2[C@@H](C3)[C@@H]2C(=O)O)c1 [MK-8666] | 20.6389 and 19.3556 and 19.3778 and 21 and 18.9 | 18.0071 and 18.5429 and 17.1786 and 18.0357 and 16.8714 | 18.6833 and 18.8833 and 18.4167 and 19.5083 and 18.1917 | 18.66 and 18.67 and 17.38 and 21.2 and 17.95 | 0 | 1.901 and 1.26 and 2.116 and 3.51 and 2.184 and 0.8674 and 1.257 and 2.71 and 1.494 and 1.111 | 104.9 and 81.92 and 88.3 and 95.99 and 52.32 and 50.41 and 79.99 and 158.3 and 57.72 and 25.52 | 0.7825 ng/mL and 1.015 ng/mL and 2.348 ng/mL and 1.621 ng/mL and 2.16 ng/mL and 2.5584 ng/mL and 2.141 ng/mL and 1.201 ng/mL and 2.632 ng/mL and 2.493 ng/mL | 20 and 26 and 18 and 13 and 22 and 3 and 11 and 21 and 12 and 4 | 1.599 and 1.212 and 2.275 and 1.828 and 2.945 and 2.154 and 1.327 and 1.669 and 1.343 and 1.536 | 39.32 and 74.04 and 79.4 and 80.59 and 90.86 and 47.57 and 50.25 and 47.43 and 58.38 and 34.5 | 68.18 and 84.22 and 84.94 and 98.89 and 97.3 and 93.71 and 80.17 and 75.96 and 87.42 and 74.37 | 1.605 ng/mL and 1.432 ng/mL and 1.588 ng/mL and 2.061 ng/mL and 1.507 ng/mL and 2.521 ng/mL and 2.104 ng/mL and 0.5711 ng/mL and 1.866 ng/mL and 2.359 ng/mL | 34 (2×) and 41 and 29 and 32 (2×) and 11 and 22 (2×) and 9 | 0.86 and 0.3 and 1.09 and 0.6 and 0.76 and 1.16 and 0.79 and 0.57 (2×) and 1.44 | 72.64 and 104.54 and 131.52 and 71.84 and 86.95 and 58.88 and 85.41 and 17.08 and 86.39 and 75.71 | 84.67 and 106.51 and 99.04 and 75.86 and 81.98 and 124.9 and 74.42 and 49.36 and 77.72 and 64.96 | 2.096 ng/mL and 1.971 ng/mL and 2.299 ng/mL and 1.835 ng/mL and 1.8388 ng/mL and 1.142 ng/mL and 2.593 ng/mL and 0.8411 ng/mL and 2.087 ng/mL and 1.846 ng/mL | 40 and 50 and 44 and 31 (2×) and 12 and 29 and 38 and 27 and 17 | 42 (2×) and 59 and 53 and 39 and 16 and 38 and 47 and 36 and 23 | Glucose Over time (S2 File, Fig 2A) (30 mpk, Day 0, individual animals): 167 mg/dL and 165 mg/dL and 192 mg/dL and 168 mg/dL and 160 mg/dL and 197 mg/dL and 172 mg/dL and 183 mg/dL and 169 mg/dL and 161 mg/dL; Glucose Over time (S2 File, Fig 2A) (30 mpk, Day 10, individual animals): 128 mg/dl and 123 mg/dl and 142 mg/dl and 120 mg/dl and 139 mg/dl (2×) and 127 mg/dl and 130 mg/dl and 140 mg/dl and 115 mg/dl; Glucose Over time (S2 File, Fig 2A) (30 mpk, Day 17, individual animals): 130 mg/dL and 155 mg/dL and 159 mg/dL and 140 mg/dL and 132 mg/dL and 137 mg/dL and 120 mg/dL and 138 mg/dL and 110 mg/dL and 102 mg/dL; Glucose Over time (S2 File, Fig 2A) (30 mpk, Day 23, individual animals): 129 mg/dL and 132 mg/dL and 148 mg/dL and 138 mg/dL and 131 mg/dL and 124 mg/dL and 143 mg/dL and 144 mg/dL and 119 mg/dL and 122 mg/dL; Glucose Over time (S2 File, Fig 2A) (30 mpk, Day 28, individual animals): 130 mg/dL and 128 mg/dL and 147 mg/dL and 122 mg/dL and 143 mg/dL and 136 mg/dL and 123 mg/dL and 135 mg/dL and 131 mg/dL and 116 mg/dL; Fasted glucose on day 28 (Fig 3B) (30 mpk, day 28, fasted, individual animals): 119 and 118 and 107 and 100 and 94 and 104 and 124 and 102 and 96 and 105; Fed glucose on day 28 (Fig 3B) (30 mpk, day 28, fed, individual animals): 123 and 135 and 131 and 116 and 130 and 128 and 147 and 122 and 143 and 136; gut hormones (total and active GLP-1, GIP, PYY) (GK rat, 30 mg/kg, 4 weeks of treatment): no effect; Plasma Glucagon (GK rat, 30 mg/kg, 28 days): trend of increasing glucagon on day 28; body weight (GK rat, 30 mg/kg, 28 days): no effect; fed blood glucose vs vehicle controls (GK rat, 30 mg/kg, 28 days, days 10–28): significant effect on day 28 only; GIP Levels Over Time (30 mpk, Day 0, individual animals (Fig 4C), 30 mg/kg, in pg/mL (unit assumed)): 12.65 and 5.7 and 68.06 and 68.73 and 44.75 and 71.88 and 53.28 and 113.97 and 32.85 and 33.08; Active GLP-1 Levels Over Time [17]: 1.155 and 1.013 and 1.22 and 0.9448 and 0.9241 and 0.9389 and 0.7791 and 1.439 and 1.063 and 0.9152; GIP Levels Over Time [18]: 17.53 and 7.25 and 46.24 and 76.52 and 12.03 and 22.4 and 15.13 and 16.8 and 5.84; PYY Levels Over Time [19]: 66.63 and 94.86 and 108.27 and 72.37 and 63.96 and 49.91 and 49.72 and 83.74 and 62.98 and 45.13; Plasma Insulin Over Time [20]: 1.012 ng/mL and 1.26 ng/mL and 1.45 ng/mL and 2.851 ng/mL and 1.138 ng/mL and 1.638 ng/mL and 1.554 ng/mL and 1.1554 ng/mL and 1.58 ng/mL and 1.305 ng/mL
